In paper PMC9688808, “Discovery of Novel Lin28 Inhibitors to Suppress Cancer Cell Stemness” (Cancers, 2022):
pIC50: −log10 of the molar value.

How the values were obtained:
[1] = biological target: T1, Lin28B CSD+ZKD (Homo sapiens, UniProt Q6ZN17); assay: Fluorescence polarization (FP) assay, Lin28 CSD+ZKD with FAM-labeled Let-7 probe; format: binding; details: 20 uM compound; for inhibition at 20 µM: read-out: inhibition of FP signals
T1 construct: Lin28B CSD+ZKD (aa7-204); His-tag; made in house; host or cells: Escherichia coli BL21
T1 sequence (Q6ZN17 7-204): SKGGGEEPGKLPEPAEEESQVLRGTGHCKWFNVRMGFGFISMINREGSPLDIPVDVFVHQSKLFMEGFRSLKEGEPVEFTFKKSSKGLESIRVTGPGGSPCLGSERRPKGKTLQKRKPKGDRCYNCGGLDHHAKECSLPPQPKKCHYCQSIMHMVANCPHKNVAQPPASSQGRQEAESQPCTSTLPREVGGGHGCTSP
Source text: (§1) ZINC compounds were purchased from Enamine (Kyiv, Ukraine), Life Chemicals Ltd. (Kyiv, Ukraine), or Princeton Biomolecular Research (Princeton, NJ, USA) with >90% purity. Upon receiving the compounds, the molecular masses were validated by LC/MS/MS. His-tagged human Lin28B ZKD (aa110-174), Lin28B CSD+ZKD (aa7-204), and Lin28A ZKD (aa121-187) were expressed in Escherichia coli BL21 cells and purified by immobilized metal ion affinity chromatography (IMAC) with nickel nitrilotriacetic acid (NiNTA) resin and size exclusion chromatography (s75 10/300 GL) as we have previously reported.
(§2) The fluorescein amidites (FAM)-tagged Let-7 probe with the sequence of […] was purchased from Integrated DNA Technologies (IDT). The probe at the concentrations ranging from 1 nM to 50 uM was incubated with Lin28B (ZKD) or Lin28 (CSD+ZKD) to a final volume of 30 uL at room temperature for 20 min. To read the fluorescence, a TECAN 500 machine was used. Fluorescence polarization was calculated using the following equation: P=Fparrallel−Fperpendicular/Fparrallel+Fperpendicular where P is the fluorescence polarization reading, F parallel is the fluorescence intensity acquired from the parallel excitation plane, and F perpendicular is the fluorescence intensity acquired from the perpendicular direction of the excitation plane. The total fluorescence intensity is estimated using the following equation: F=Fparallel+2Fperpendicular
(§3) All the raw FP signal data from the TECAN 500 FP results were analyzed using Prism 8.0 (GraphPad, San Diego, CA, USA); normalized curves were plotted and IC50 values were estimated. All FP data were repeated three to five times.
(§4) To test the predicted compounds by CADD, we established an FP assay using both Lin28B ZKD and Lin28B CSD+ZKD to be incubated with a FAM-labeled Let-7 oligo containing the GGAG motif. To validate that the signals obtained from FP assays reflect the interaction between Lin28 and Let-7, we have tested: (1) 1 nM–50 uM FAM-labeled Let-7 probes with 10 uM Lin28 proteins and observed a dose-dependent reduction of FP signal; (2) 1 nM FAM labeled Let-7 probes with 1 nM–50 uM Lin28 proteins and observed a dose-dependent increase of FP signal; (3) 1 nM–50 uM doses of non-labeled Let-7 oligo to be incubated with 1 nM FAM probe and 10 uM Lin28 proteins, and observed a dose-dependent reduction of FP signal (Figure 2A,B).
We then screened all 163 molecules predicted by the CADD pipeline by using the FP assays with 10 uM of Lin28B ZKD protein and 1 nM of FAM-labeled Let-7 probe. Compounds Li71 and 1632 were also included and served as positive controls. We used 60% inhibition of FP signals by 20 uM of the tested compounds as the cut-off and found 15 active compounds achieving a hit rate of 9% (15/163) (Figure 2C left). […]

[2] = biological target: T2, Lin28B ZKD (Homo sapiens, UniProt Q6ZN17); assay: Fluorescence polarization (FP) assay, Lin28B ZKD with FAM-labeled Let-7 probe; format: binding; details: for pIC50: 10 uM Lin28B ZKD, 1 nM FAM-labeled Let-7 probe, 1 nM–1000 uM compound
T2 construct: His-tagged human Lin28B ZKD (aa110-174); His-tag; made in house; host or cells: Escherichia coli BL21
T2 sequence (Q6ZN17 110-174): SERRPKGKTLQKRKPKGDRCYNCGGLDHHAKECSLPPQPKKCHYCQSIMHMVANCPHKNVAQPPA
Source text: as §1, §2, §3, §4
Figure 2 Establishment of the Fluorescence Polarization Assay and Initial compound screening. (A) Graphical representation of the FP assay principle. As the labeled probe floats freely in the solution, it rotates more rapidly, producing a low FP signal. When the labeled probe binds to proteins, it rotates slower and produces a high FP signal. (B) In FP assays, probe titration was performed by using 10 uM protein with […] FAM-labeled Let-7 probe (n = 9 replicates). Protein titration was performed by using 1 nM of FAM-labeled Let-7 probe with 1 nM–50 uM Lin28B ZKD protein (n = 9 replicates), and competition titration using 1 nM–50 µM non-labeled Let-7 probe with 10 uM of Lin28B ZKD protein with 1 nM FAM-labeled Let-7 probe (9 replicates). (C) FP assays were used to screen 163 compounds at the concentration of 20 uM using 1 nM of FAM-labeled Let-7 probe with 10 uM Lin28B ZKD protein.
Figure 3 Lin28 inhibitors block the interaction between Lin28B ZKD and Let-7. […]

Structure (SMILES) | inhibition of FP signals [1] | pIC50 [2] | inhibition at 20 µM [1] | maximum inhibition in FP assay ([2]; Lin28B ZKD titration)
CCOc1cccc2c1N[C@@H](c1ccc(C(=O)O)cc1)[C@H]1CC=C[C@@H]21 [Li71, reference compound] | ~ 30% | 4.26 |  | 
CCc1cc(=O)[nH]c(Nc2cc(Cl)ccc2O)n1 [Ln7] |  | ~4.35 | ~50% | 
O=c1[nH]c(Nc2ccccc2O)cs1 [Ln15] |  | ~5.05 | ~50% | 

The next lines start with the values.

inhibition of FP signals [1] | pIC50 [2] | inhibition at 20 µM [1] | maximum inhibition in FP assay ([2]; Lin28B ZKD titration) | Structure (SMILES)
 | ~4.68 | ~20% |  | O=c1cccc(-c2nc3cc(F)c(O)cc3c(=O)[nH]2)[nH]1 [Ln115]
 |  |  | ≤ 50% | CC(=O)N(C)c1cccc(-c2ccc3nnc(C)n3n2)c1 [compound 1632, reference compound]
